Where two headings read alike, the source gives them in different places.
Key:
C57BL/6 male mice [1] = assay: Conditioned avoidance response (CAR) model of psychosis; format: in vivo; conditions: for number of avoidance responses (CAR) vs vehicle: 30 trials; for conditioned avoidance response (CAR) in trained mice as compared to vehicle control: mouse, in vivo
Description: Conditioned avoidance response (CAR) is a behavioral test to evaluate antipsychotic effect of a test compound. […] Each chamber is fitted with metal grid floor that is capable of delivering electric shocks independently. A computer program is used to implement the testing paradigm as well as record the animal's movement between the two chambers through infrared beam sensors. The testing paradigm is as the follows. A mouse is placed into one chamber. A light (conditioned stimulus, CS) comes on. Five seconds later, mild electric shocks (0.4 mA) (unconditioned stimulus, US) are delivered to the chamber where the mouse is located (as detected by infrared beams) until the mouse escapes to the adjacent chamber or until 10 sec has elapsed. The US and CS always co-terminate. With randomized inter-trial intervals averaging 15 sec, 30 such CS-US pairing trials are given to each mouse each day. For each trial, an escape response is registered if the mouse crosses to the other chamber after being shocked (i.e., during the 10-sec US period), and an avoidance response is registered if the mouse crosses to the other chamber during the first 5-sec CS only period. The animals are trained in such paradigm for 15-20 days, during which the average percentage of avoidance responses will improve to 60-80%. […] These trained animals are then used for compound testing using the same paradigm.
The mice were then injected with either compound or vehicle via i.p., and 20 minutes later they were tested for 30 trials in the CAR paradigm. Vehicle treatment and compound treatment were given to the same animals on alternating days, and the effect of compound in reducing avoidance response was analyzed through within-subject comparison (paired t-test). […] The mice were then given either vehicle (15 minutes prior to testing) or compound (25 minutes prior to testing) via oral gavage, and were tested for 30 trials in the CAR paradigm. Vehicle treatment and compound treatment were given to the same animals on alternating days, and the effect of compound in reducing avoidance response was analyzed through within-subject comparison (paired t-test).
The mice were then given either vehicle (15 minutes prior to testing) or compound (25 minutes prior to testing) via oral gavage, and then were tested for 30 trials in the CAR paradigm. Vehicle treatment and compound treatment were given to the same animals on alternating days, and the effect of compound in reducing avoidance response was analyzed through within-subject comparison (paired t-test).
The mice were then given either vehicle (15 minutes prior to testing) or compound (25 minutes prior to testing) via oral gavage, and were then tested for 30 trials in the CAR paradigm. Vehicle treatment and compound treatment were given to the same animals on alternating days, and the effect of compound in reducing avoidance response was analyzed through within-subject comparison (paired t-test).
The mice were then given either vehicle (15 minutes prior to testing) or compound (25 minutes prior to testing) via oral gavage, and were tested for 30 trials in the CAR paradigm.

C57BL/6 male mice [2] = assay: PCP-induced hyperactivity (psychostimulant-induced model of psychosis); format: in vivo
Description: Psychostimulant-induced hyperactivity is measured by injecting animals with PCP and monitoring the animals' activity levels in the VersaMax chambers (Accuscan Instruments, Columbus, Ohio) measuring 40×40 cm. Locomotor activity is detected by photobeam breaks as the animal crosses each beam. The animal is placed in the center of the field and left undisturbed for a period of time (20 min to 2 hr) to measure its spontaneous activity in a novel environment. Measurements used to assess locomotor activity include: horizontal activity, total distance traveled, vertical activity (rearing events—animal raises up on hindlimbs), rotation, stereotypy, and distance traveled in the center compared to total distance traveled (center: total distance ratio). The NMDA antagonist PCP induces psychosis-like conditions manifested as hyperactivity and increased stereotypic behavior. Known antipsychotics are able to reverse psychostimulant-induced hyperactivity and increased stereotypy.
C57BL/6 male mice were injected with either compound (10 mg/kg) or vehicle via i.p. Ten minutes later, the mice were injected with PCP (5 mg/kg) via i.p. The mice were placed in the activity chambers 10 minutes after PCP injection and their locomotor activities were monitored by infrared beam breaks for 20 min.
(§1) C57BL/6 male mice were administered either compound or vehicle via oral gavage. Fifteen minutes later, the mice were injected with PCP (5 mg/kg) via the i.p. route. The mice were placed in activity chambers 10 minutes after PCP injection, and their locomotor activity in the horizontal dimension was monitored by infrared beam breaks for 20 min (5 consecutive 4-minute intervals (INT) as indicated).
as §1, with “Twenty-five” for “Fifteen”, “injection” for “injection,”
C57BL/6 male mice were given either compound or vehicle by oral gavage. Twenty-five minutes later they were injected with PCP (5 mg/kg, i.p.). Ten minutes later, the mice were placed in activity chambers, and their locomotor activity in the horizontal dimension was monitored by infrared beam breaks for 20 min (5 consecutive 4-minute intervals (INT) as indicated).
C57BL/6 male mice were co-injected with PCP (5 mg/kg) and either compound or vehicle via the i.p. route. Ten minutes later, the mice were placed in activity chambers and their locomotor activity in the horizontal dimension was monitored by infrared beam breaks for 20 min (5 consecutive 4-minute intervals (INT) as indicated).
as §1, with “oral gavage. Twenty-five minutes later,” for “oral gavage. Fifteen minutes later,”, “placed in the activity chambers” for “placed in activity chambers”, “after PCP injection and their” for “after PCP injection, and their”
C57BL/6 male mice were administered either compound or vehicle via oral gavage. Twenty-five minutes later, the mice were injected with PCP (5 mg/kg) via the i.p. route. The mice were placed in the activity chambers 10 minutes after injection and their locomotor activity in the horizontal dimension was monitored by infrared beam breaks for 20 min (5 consecutive 4-minute intervals as indicated).

[3] = biological target: T1, recombinant human PDE 10A1 (Homo sapiens, UniProt Q9Y233); assay: PDE10 biochemical assay (two-step Thompson and Appleman method or SPA)
T1 construct: made in house; host or cells: Sf9 insect cells, baculoviral system
Description: After the appropriate incubation time, the reaction is terminated by heating. The mixture is then subjected to treatment with snake venom phosphatase. […] IC50 values can be calculated by performing the experiment at several concentrations using standard graphical means. A detailed description of the actual technique used for IC50 assays as set forth in following Examples.
The phosphodiesterase (PDE) assay was performed using recombinant human PDE 1A3, 2A3, 3 catalytic region, 4 catalytic region, 5 catalytic region, 7A, 8A, 9A2, 10A1 and 11A1 enzymes expressed in a baculoviral system using Sf9 cells. PDE activity was measured using a modification of the two-step method of Thompson and Appleman described above which was adapted for 96 well plate format. […] Reactions were initiated with enzyme and incubated with (^3H)-substrate and substance for 20 minutes at 30° C. The reaction was terminated by denaturing the enzyme (heating the reaction to 70° C. for 2 minutes). The reaction was then cooled at 4° C. for 10 minutes before the addition of snake venom (Crotalus atrox, 0.2 mg/ml) for 10 minutes at 30° C., thus allowing non-specific hydrolysis of the tritiated substrate. Separation of the remaining unhydrolysed cyclic nucleotide was achieved by a batch binding of the mixture to activated Dowex (200 μl) anion exchange resin. The anion exchange resin bound the charged nucleotides, leaving only hydrolysed (^3H) substrate in the soluble fraction. The soluble fraction (50 μl) was then added to microscint-20 (200 μl) and counted on a Top Count Plate reader. Radioactivity units were plotted against inhibitor concentration and IC50 values obtained using Graph Pad Prism software.
Alternatively, phosphodiesterase activity was measured by scintillation proximity assay (SPA) with [^3H]-cGMP as substrate. Purified PDE10 was diluted and stored in 25 mM Tris-Cl (pH 8.0)/100 mM NaCl/0.05% Tween 20/50% glycerol/3 mM DTT. Assays contained (final concentrations): 50 mM Tris-Cl (pH 7.5)/8.3 mM MgCl2/1.7 mM EGTA/0.5 mg/ml BSA/5% DMSO and 2 ng PDE10 in a final volume of 0.1 mL. Inhibition was evaluated at 8 concentrations in duplicate. Reactions were initiated by addition of enzyme and were terminated after 20 minutes at 30° C. by the addition of 50 μl of SPA beads containing Zn^++. The mixture was shaken, allowed to settle for 3 hours, and counted in a Wallac plate counter. Results (net cpm) were fitted to a four parameter logistic model using Excel Solver®.

PDE10 [4] = conditions: cited from earlier work
PDE10 [5] = conditions: cGMP binding to PDE10; read-out: dissociation constant (Kd); cited from earlier work
[6] = PDE10 inhibition, read-out: IC50

T1 sequence (Q9Y233 1-779 isoform Q9Y233-1): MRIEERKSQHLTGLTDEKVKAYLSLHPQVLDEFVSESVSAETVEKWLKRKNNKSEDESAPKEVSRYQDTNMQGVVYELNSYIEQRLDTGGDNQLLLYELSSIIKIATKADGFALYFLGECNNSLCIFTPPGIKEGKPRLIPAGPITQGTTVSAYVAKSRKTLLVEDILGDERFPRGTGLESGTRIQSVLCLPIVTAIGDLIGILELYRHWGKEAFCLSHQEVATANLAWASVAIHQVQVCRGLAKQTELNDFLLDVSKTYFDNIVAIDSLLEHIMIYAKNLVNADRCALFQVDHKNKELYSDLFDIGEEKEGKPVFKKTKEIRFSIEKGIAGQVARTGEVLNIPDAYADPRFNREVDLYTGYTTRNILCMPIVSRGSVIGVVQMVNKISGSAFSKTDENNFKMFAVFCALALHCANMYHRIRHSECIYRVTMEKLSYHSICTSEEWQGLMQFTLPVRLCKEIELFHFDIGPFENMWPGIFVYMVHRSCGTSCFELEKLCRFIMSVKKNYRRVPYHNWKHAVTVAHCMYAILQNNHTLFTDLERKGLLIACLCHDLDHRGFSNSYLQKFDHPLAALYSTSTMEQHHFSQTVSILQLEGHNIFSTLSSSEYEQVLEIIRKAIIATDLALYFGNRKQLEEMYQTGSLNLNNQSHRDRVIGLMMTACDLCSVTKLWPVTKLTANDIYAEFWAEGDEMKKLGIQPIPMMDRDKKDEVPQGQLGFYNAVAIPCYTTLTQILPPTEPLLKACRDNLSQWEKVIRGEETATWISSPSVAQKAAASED

COc1cc(/C=N/NC(=O)C(OC)c2ccc(N3CCOCC3)cc2)cc(OC)c1Br (centres unmarked) [Compound 12-114]
number of avoidance responses (CAR) vs vehicle (C57BL/6 male mice [1]; 10 mg/kg oral): significantly reduces the number of avoidance response | conditioned avoidance response (CAR) in trained mice as compared to vehicle control (C57BL/6 male mice [1]): significantly reduces a conditioned avoidance response | PCP-induced hyperactivity compared to vehicle+PCP control (C57BL/6 male mice [2]; mouse, in vivo): completely abolishes the hyperactivity | hyperactivity of mice in PCP-induced model of psychosis as compared to vehicle control (C57BL/6 male mice [2]; mouse, in vivo): significantly reduces hyperactivity

COc1cc(/C=N/NC(=O)C(OC)c2ccc(-n3cccn3)cc2)cc(OC)c1Br (centres unmarked) [Compound 12-104]
number of avoidance responses (CAR) vs vehicle (C57BL/6 male mice [1]; 10 mg/kg oral): significantly reduces the number of avoidance response | number of avoidance responses (CAR) vs vehicle (C57BL/6 male mice [1]; 30 mg/kg oral): significantly reduces the number of avoidance response | conditioned avoidance response (CAR) in trained mice as compared to vehicle control (C57BL/6 male mice [1]): significantly reduces a conditioned avoidance response | PCP-induced hyperactivity compared to vehicle+PCP control (C57BL/6 male mice [2]; mouse, in vivo): reduces or abolishes the hyperactivity | hyperactivity of mice in PCP-induced model of psychosis as compared to vehicle control (C57BL/6 male mice [2]; mouse, in vivo): significantly reduces hyperactivity

CCOC(C(=O)N/N=C/c1cc(OC)c(Br)c(OC)c1)c1cccc2ncccc12 (centres unmarked) [Compound 12-60]
IC50 [3, 6]: ≤ 1000 nM | PCP-induced hyperactivity compared to vehicle (C57BL/6 male mice [2]; 10 mg/kg i.p., ten minutes before PCP 5 mg/kg i.p.): a similar result | hyperactivity of mice in PCP-induced model of psychosis as compared to vehicle control (C57BL/6 male mice [2]; dose not stated): significantly reduces hyperactivity

COc1cc(/C=N/NC(=O)C(OC)c2ccnc3ccccc23)cc(Br)c1OC (centres unmarked) [Compound 12-58]
IC50 [3, 6]: ≤ 1000 nM

COc1cc(/C=N/NC(=O)C(OC)c2cnc3ccccc3c2)cc(OC)c1OC (centres unmarked) [Compound 12-61]
IC50 [3, 6]: ≤ 1000 nM

COc1cc(/C=N/N(CC(F)(F)F)C(=O)C(OC)c2ccc(-n3cccn3)cc2)cc(OC)c1Br (centres unmarked) [Compound 11-1, (E)-2-(4-(1H-pyrazol-1-yl)phenyl)-N′-(4-bromo-3,5-dimethoxybenzylidene)-2-methoxy-N-(2,2,2-trifluoroethyl)acetohydrazide]
IC50 [3, 6]: ≤ 1000 nM

COc1ccc(/C=N/N(C)C(=O)C(OC)c2ccccc2)cc1OC (centres unmarked) [Compound 12-70, (E)-N′-(3,4-Dimethoxybenzylidene)-2-methoxy-N-methyl-2-phenylacetohydrazide]
IC50 [3]: ≤ 1000 nM

CCOC(C(=O)N/N=C/c1cc(Br)c(OC)c(OC)c1)c1ccc2c(c1)OCCO2 (centres unmarked) [Compound 12-135]
IC50 [3, 6]: ≤ 1000 nM

COc1cc(/C=N/NC(=O)C(OC)c2cccc(N(C)C)c2)cc(Br)c1OC (centres unmarked) [Compound 12-122]
IC50 [3, 6]: ≤ 1000 nM

CCOC(C(=O)N/N=C/c1cc(OC)cc(OC)c1)c1cccc2ncccc12 (centres unmarked) [Compound 12-120]
IC50 [3, 6]: ≤ 1000 nM

COc1cc(/C=N/NC(=O)C(OC)c2ccccc2)cc(OC)c1OC (centres unmarked) [Compound 12-17]
IC50 [3, 6]: ≤ 1000 nM

COc1cc(/C=N/NC(=O)C(OC)c2ccc(F)cc2)cc(OC)c1Br (centres unmarked) [Compound 12-1]
IC50 [3, 6]: ≤ 1000 nM

COc1ccc(/C=N/NC(=O)C(OC)c2ccc(-n3cccn3)cc2)cc1OC (centres unmarked) [Compound 12-155]
IC50 [3, 6]: ≤ 1000 nM

CC(C)Cn1c(=O)n(C)c(=O)c2[nH]cnc21 [IBMX, reference compound]
IC50 (PDE10 [4]; read-out: IC50 (50% inhibitory concentration), inhibition of PDE10): 2600 nM

Nc1nc2c(ncn2[C@@H]2O[C@@H]3COP(=O)(O)O[C@H]3[C@H]2O)c(=O)[nH]1 [cGMP]
Kd (PDE10 [5]): > 9000 nM | Km (PDE10 [4]; substrate hydrolysis by PDE10): 3 µM

COc1cc(/C=N/NC(=O)C(OC)c2ccc(Cl)cc2)cc(OC)c1Br (centres unmarked) [Compound 12-12]
IC50 [3, 6]: ≤ 1000 nM

COc1ccc(/C=N/NC(=O)C(c2ccccc2)C(C)C)cc1OC (centres unmarked) [Compound 9-1, (E)-N′-(3,4-Dimethoxybenzylidene)-3-methyl-2-phenylbutanehydrazide]
IC50 [3, 6]: ≤ 1000 nM

COc1cc(/C=N/NC(=O)C(OC)c2ccc3ccccc3c2)cc(OC)c1OC (centres unmarked) [Compound 1-1, (E)-2-Methoxy-2-(naphthalen-2-yl)-N′-(3,4,5-trimethoxybenzylidene)acetohydrazide]
IC50 [3, 6]: ≤ 1000 nM

CCOC(C(=O)N/N=C/c1cc(OC)c(OC)c(OC)c1)c1cccc2ncccc12 (centres unmarked) [Compound 12-59]
IC50 [3, 6]: ≤ 1000 nM
